Laboratory results as given in patent publication US20250235437A1, “PROTEOLYSIS TARGETING CHIMERA (PROTAC) MOLECULE FOR DEGRADATION OF ENL AND CANCER THERAPY” (Baylor College of Medicine, priority 2022, published 2025).
Where two headings read alike, the source gives them in different places. Each block holds one molecule with its values, some of them ahead of it.

How the values were obtained:
[1] = tested on: Hela cell; experiment: Anti-proliferative activity, Hela cells; type: cell-based; details: Hela cells, read-out: Anti-proliferative activity EC50, Hela
[2] = tested on: Molm-13 cells; experiment: Anti-proliferative activity, Molm-13 cells; type: cell-based
[3] = tested on: Molm-13 cells; details: Molm13 cells, footnote b: reported in Li, et al. J Hematol Oncol, 2022; read-out: Anti-proliferative activity EC50, Molm13; cited from earlier work
[4] = tested on: MV4;11 cells; details: footnote b: reported in Li, et al. J Hematol Oncol, 2022, read-out: Anti-proliferative activity EC50, MV4; cited from earlier work
[5] = tested on: RPMI-8226 cells; details: footnote b: reported in Li, et al. J Hematol Oncol, 2022, read-out: Anti-proliferative activity EC50, RPMI-8226; cited from earlier work
[6] = tested on: Hela cell; details: Hela cells, footnote b: reported in Li, et al. J Hematol Oncol, 2022, read-out: Anti-proliferative activity EC50, Hela, cited from earlier work
[7] = target: T1, ENL (Homo sapiens, UniProt Q03111); experiment: ENL degradation in MV4;11 cells (Western blot); type: cell-based; details: for DC50: read-out: DC50 (concentration at which a protein is reduced by 50%), ENL
T1 construct: tested whether the compounds degrade ENL and AF9 in MV4;11 leukemia cells; endogenous in cells; host or cells: MV4;11; Molm-13
T1 sequence (Q03111 1-559): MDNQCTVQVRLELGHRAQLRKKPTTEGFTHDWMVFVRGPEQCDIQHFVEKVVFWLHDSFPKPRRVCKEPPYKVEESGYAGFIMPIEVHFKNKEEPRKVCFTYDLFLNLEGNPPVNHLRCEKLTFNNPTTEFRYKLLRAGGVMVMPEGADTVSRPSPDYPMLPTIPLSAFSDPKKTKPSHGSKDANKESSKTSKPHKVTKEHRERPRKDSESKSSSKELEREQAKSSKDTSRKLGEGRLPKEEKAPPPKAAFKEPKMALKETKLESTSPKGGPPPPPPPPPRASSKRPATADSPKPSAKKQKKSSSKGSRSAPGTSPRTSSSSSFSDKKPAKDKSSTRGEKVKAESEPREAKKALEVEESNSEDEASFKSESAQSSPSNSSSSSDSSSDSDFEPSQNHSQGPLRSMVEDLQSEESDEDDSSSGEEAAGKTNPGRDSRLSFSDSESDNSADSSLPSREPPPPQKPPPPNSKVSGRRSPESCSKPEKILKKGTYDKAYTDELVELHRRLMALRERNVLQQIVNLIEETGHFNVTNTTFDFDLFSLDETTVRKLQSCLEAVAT
Procedure: Next, Applicant tested whether the compounds degrade ENL and AF9 in MV4;11 leukemia cells with the .MLL1-AF4 oncogene. Upon compound treatment for 24 h, the cells were washed, lysed, and the lysates subjected to SDS-PAGE (sodium dodecyl sulphate-polyacrylamide gel electrophoresis) followed by detection with Western blot.

[8] = tested on: RPMI-8226 cells; experiment: Anti-proliferative activity, RPMI-8226 cells; type: cell-based
[9] = target: T2, ENL YEATS-H3K27ac interaction (Homo sapiens, UniProt Q03111); experiment: ALPHA assay, inhibition of ENL YEATS-H3K27ac interaction; details: read-out: IC50, inhibition of ENL YEATS-H3K27ac interaction
T2 sequence (Q03111 1-138 limits assumed): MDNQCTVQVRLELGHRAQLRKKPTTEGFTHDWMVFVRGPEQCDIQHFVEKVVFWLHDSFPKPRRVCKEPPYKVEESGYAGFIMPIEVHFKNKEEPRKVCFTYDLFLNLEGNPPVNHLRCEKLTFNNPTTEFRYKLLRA

[10] = tested on: MV4;11 cells; experiment: Anti-proliferative activity, MV4;11 cells; type: cell-based
[11] = tested on: blood and solid tumor cells; experiment: Anti-proliferative activity, panel of blood and solid tumor cells; type: cell-based
[12] = target: T1, ENL; experiment: Rescue of compound 1-mediated ENL degradation in MV4;11 cells; type: cell-based; details: 2 h pre-treatment then co-treatment with compound 1 (500 nM) for 24 h
[13] = target: T1, ENL; experiment: Nuclear and cytoplasmic ENL levels in MV4;11 cells, 4 days (Western blot); type: cell-based
From the text: Upon treatment of MV4;11 cells with these compounds for 4 days, cytoplasmic and nuclear proteins were separated and subjected to SDS-PAGE/Western blot.

[14] = Molm13 cells, read-out: Anti-proliferative activity EC50, Molm13
[15] = MV4, 11 cells, read-out: Anti-proliferative activity EC50, MV4, 11

EC50 ([1]; 3 days incubation): 2500 ± 1000 nM
Structure (SMILES): C[C@H]1CCCN1Cc1nc2cc(NC(=O)c3ccc4c(cnn4CCCNC(=O)CC45CC6CC(CC(C6)C4)C5)c3)ccc2[nH]1 [SYC-2558]

Structure (SMILES): C[C@H]1CCCN1Cc1nc2cc(NC(=O)c3ccc4c(cnn4C)c3)ccc2[nH]1 [SGC-iMLLT, reference compound]
activity against proliferation ([2]; Molm-13 cells): weak activity
EC50 [3]: 17000 nM
EC50 [4]: > 50000 nM
EC50 [5]: > 50 µM
EC50 [6]: > 50 µM

Dmax (maximal degradation), ENL ([7]; 24 h treatment): 89%
concentration at which ENL is almost depleted ([7]; 24 h treatment): ~500 nM
DC50 ([7]; 24 h treatment): 72 nM
EC50 [8]: 19 ± 3.8 µM
EC50 ([1]; footnote letter missing): > 50000 nM
IC50 [9]: 610 nM
Structure (SMILES): C[C@H]1CCCN1Cc1nc2cc(NC(=O)c3ccc4c(cnn4CCCCNc4cccc5c4C(=O)N(C4CCC(=O)NC4=O)C5=O)c3)ccc2[nH]1 (stereo partly drawn) [Compound 3]
EC50 [3]: 2100 nM
EC50 [4]: 1200 nM

Dmax (maximal degradation), ENL ([7]; 24 h treatment): ~68%
DC50 ([7]; 24 h treatment): ~50 nM
EC50 [8]: 6 ± 0.91 µM
IC50 [9]: 100 nM
Structure (SMILES): C[C@H]1CCCN1Cc1nc2cc(NC(=O)c3ccc4c(cnn4CCCCCCNc4cccc5c4C(=O)N(C4CCC(=O)NC4=O)C5=O)c3)ccc2[nH]1 (stereo partly drawn) [Compound 2]
EC50 [3]: 490 nM
EC50 [4]: 1600 nM
EC50 [6]: > 50 µM

DC50 ([7]; 24 h treatment): 4.2 nM
EC50 [2, 14]: 3400 ± 400 nM
EC50 [10, 15]: 8.3 ± 1.6 µM
EC50 [8]: 7.2 ± 0.35 µM
Structure (SMILES): C[C@H]1CCCN1Cc1nc2cc(NC(=O)c3ccc4c(cnn4CCCCCNc4cccc5c4C(=O)N(C4CCC(=O)NC4=O)C5=O)c3)ccc2[nH]1 (stereo partly drawn) [SYC-2553]

ENL reduction ([7]; 24 h, even at 5 μM): did not reduce ENL
EC50 ([11]; blood and solid tumor cells, range over cell lines, read-out: EC50, proliferation): 1000 to 3800 nM
Structure (SMILES): C[C@H]1CCCN1Cc1nc2cc(NC(=O)c3ccc4c(cnn4CCCCNC(=O)CC45CC6CC(CC(C6)C4)C5)c3)ccc2[nH]1 [Compound 4]
time to non-selective killing of cancerous cells [11]: ≤ 3 days

EC50 [2, 14]: 980 ± 40 nM
EC50 ([8]; 3 days incubation): 1.4 ± 0.5 µM
Structure (SMILES): C[C@H]1CCCN1Cc1nc2cc(NC(=O)c3ccc4c(cnn4CCCCNC(=O)CC45CC6CC(CC(C6)C4)C5)c3)ccc2[nH]1 [SYC-2523]
EC50 ([6]; 3 days incubation): 3.8 ± 1.2 µM

Structure (SMILES): CC(C)C[C@H](NC(=O)[C@H](Cc1ccccc1)NC(=O)c1cnccn1)B(O)O [bortezomib]
effect on compound 1-mediated ENL degradation [12]: dose-dependently inhibit compound 1-mediated ENL degradation

EC50 [2, 14]: 1000 ± 200 nM
EC50 [8]: 2 ± 0.3 µM
EC50 ([1]; 3 days incubation): 2500 ± 1400 nM
Structure (SMILES): C[C@H]1CCCN1Cc1nc2cc(NC(=O)c3ccc4c(cnn4CCCCCCCCNC(=O)CC45CC6CC(CC(C6)C4)C5)c3)ccc2[nH]1 [SYC-2521]

ENL level in the nucleus [13]: did not reduce
EC50 ([2]; Homo sapiens, 168 h, Molm-13 cells, 7-day incubation, read-out: EC50, proliferation): > 50000 nM
EC50 ([10]; Homo sapiens, 168 h, MV4;11 cells, 7-day incubation, read-out: EC50, proliferation): > 50 µM
Structure (SMILES): O=C1CCC(N2C(=O)c3ccccc3C2=O)C(=O)N1 (stereo not drawn) [Thalidomide, thalidomide, reference compound]
effect on compound 1-mediated ENL degradation [12]: dose-dependently inhibit compound 1-mediated ENL degradation
EC50 [3]: > 50000 nM
EC50 [4]: > 50000 nM
EC50 [5]: > 50 µM
EC50 [6]: > 50 µM

ENL reduction ([7]; FIGS. 9A-9E): did not reduce ENL
EC50 [2, 14]: 4500 ± 600 nM
EC50 [10, 15]: 8.3 ± 0.8 µM
EC50 [8]: 7.9 ± 0.07 µM
Structure (SMILES): C[C@H]1CCCN1Cc1nc2cc(NC(=O)c3ccc4c(cnn4CCCCCCCCCNc4cccc5c4C(=O)N(C4CCC(=O)NC4=O)C5=O)c3)ccc2[nH]1 (stereo partly drawn) [SYC-2555]

ENL reduction ([7]; FIGS. 9A-9E): did not reduce ENL
EC50 [2, 14]: 1100 ± 300 nM
EC50 [10, 15]: 8.4 ± 1.2 µM
EC50 [8]: 7.5 ± 0.19 µM
Structure (SMILES): C[C@H]1CCCN1Cc1nc2cc(NC(=O)c3ccc4c(cnn4CCCCCCCCCCNc4cccc5c4C(=O)N(C4CCC(=O)NC4=O)C5=O)c3)ccc2[nH]1 (stereo partly drawn) [SYC-2556]

EC50 [2, 14]: 1000 ± 50 nM
EC50 [8]: 0.68 ± 0.2 µM
EC50 ([1]; 3 days incubation): 3200 ± 700 nM
Structure (SMILES): C[C@H]1CCCN1Cc1nc2cc(NC(=O)c3ccc4c(cnn4CCCCCCNC(=O)CC45CC6CC(CC(C6)C4)C5)c3)ccc2[nH]1 [SYC-2522]

ENL reduction ([7]; FIGS. 9A-9E): did not reduce ENL
EC50 [2, 14]: 820 ± 200 nM
EC50 [10, 15]: 0.94 ± 0.06 µM
EC50 ([8]; 6 days incubation): 5.5 µM
Structure (SMILES): C[C@H]1CCCN1Cc1nc2cc(NC(=O)c3ccc4c(cnn4CCCCCCCCCCCNc4cccc5c4C(=O)N(C4CCC(=O)NC4=O)C5=O)c3)ccc2[nH]1 (stereo partly drawn) [SYC-2557]

DC50 ([7]; 24 h treatment): 21 nM
EC50 [2, 14]: 2500 ± 1100 nM
Structure (SMILES): C[C@H]1CCCN1Cc1nc2cc(NC(=O)c3ccc4c(cnn4CCCNc4cccc5c4C(=O)N(C4CCC(=O)NC4=O)C5=O)c3)ccc2[nH]1 (stereo partly drawn) [SYC-2552]

EC50 [2, 14]: 4400 ± 500 nM
EC50 [10, 15]: 3.7 ± 1.6 µM
EC50 [8]: 6.4 ± 0.65 µM
Structure (SMILES): C[C@H]1CCCN1Cc1nc2cc(NC(=O)c3ccc4c(cnn4CCCCCCCNc4cccc5c4C(=O)N(C4CCC(=O)NC4=O)C5=O)c3)ccc2[nH]1 (stereo partly drawn) [SYC-2554]
